# Measurements: publication PMC3517606 (2012)
# Columns and labels:
# [1] = test system: ds26 (DNA, duplex) CAATCGGATCGAATTCGATCCGATTG; assay: emission spectroscopy; settings: 100 mM KCl; 10 mM Tris-HCl, pH 7.4; 4 µM Ru, 8 µM DNA
# [2] = test system: HTG21 (DNA, G4) GGGTTAGGGTTAGGGTTAGGG; assay: absorption titration; settings: 100 mM NaCl; 10 mM Tris-HCl, 25 °C
# [3] = test system: HTG21 (DNA, G4) GGGTTAGGGTTAGGGTTAGGG; assay: luminescence titration, Scatchard; settings: 100 mM KCl; 10 mM Tris-HCl, pH 7.4, 20 °C; 4 µM Ru; DNA concentration in base pairs
# [4] = test system: F21T (DNA, G4) GGGTTAGGGTTAGGGTTAGGG; assay: FRET melting; settings: 60 mM KCl; 10 mM Tris-HCl, pH 7.4; 1 µM DNA, [Ru]:[DNA] = 2:1
binding [1],Kb [2],Kb [3],ΔTm [4],Structure (SMILES)
weak,8.9e+06 M⁻¹,930000 M⁻¹,22.7 °C,Oc1ccc(-c2nc3c4cccnc4c4ncccc4c3[nH]2)cc1.[Ru+2].c1cnc2c(c1)ccc1cccnc12.c1cnc2c(c1)ccc1cccnc12 [Λ-Ru]
weak,8.3e+06 M⁻¹,720000 M⁻¹,15.0 °C,Oc1ccc(-c2nc3c4cccnc4c4ncccc4c3[nH]2)cc1.[Ru+2].c1cnc2c(c1)ccc1cccnc12.c1cnc2c(c1)ccc1cccnc12 [Δ-Ru]
weak,–,910000 M⁻¹,18.4 °C,Oc1ccc(-c2nc3c4cccnc4c4ncccc4c3[nH]2)cc1.[Ru+2].c1cnc2c(c1)ccc1cccnc12.c1cnc2c(c1)ccc1cccnc12 [Λ/Δ-Ru]
